Literature values as cited in patent US8440172B2, “Stable soluble salts of phenylbenzimidazole sulfonic acid at PHS at or below 7.0” (Symrise AG, priority 2007, dated 2013).

Assays:
[1] = free acid, not neutralised

solubility in water [1]: 0.25 % w/w | pH of cosmetic formulation needed to prevent the free acid from recrystallising (Johncock, Cosmetic & Toiletries Magazine 1999): above 6.8 | pH at which crystal formation starts (cosmetic formulation, Johncock 1999): 7.0
SMILES: O=S(=O)(O)c1ccc2nc(-c3ccccc3)[nH]c2c1 [phenylbenzimidazole sulfonic acid, 2-phenylbenzimidazole-5-sulfonic acid]
